Measurements published in patent publication US5104891A, “Cycloheptimidazolone compounds as angiotensin II antagonists for control of hypertension” (G. D. Searle & Co., priority 1989, dated 1992).

What was measured:
angiotensin II = details: literature; cited from earlier work
AII pressor response [1] = assay: In vivo AII pressor assay, intraduodenal administration; set-up: species or system rat (male Sprague Dawley); details: rat, @ 100 mg
Experimental: (§1) Male Sprague Dawley rats weighing […] were anesthetized with Inactin (100 mg/kg), a catheter was inserted into the trachea and the carotid artery and the jugular vein were cannulated. Arterial pressure was measured from the carotid artery cannula and continuously recorded (Gould, Cleveland, OH). The jugular vein cannula was used for injections of angiotensin II (AII), mecamylamine, atropine and the test compound. The animal was allowed to equilibrate for 30 minutes. Mecamylamine (3 mg/kg, 0.3 mg/kg) and atropine (400 μg/kg, 0.3 ml/kg) were then given iv to produce ganglion blockage. These compounds were administered every 90 minutes throughout the screening procedure. Angiotensin II was given in bolus doses ([…] in saline with 0.5% bovine serum albumin, 0.1 ml/kg) every 10 minutes consecutively three times or until the increase in arterial pressure produced was within 3 mm Hg for two consecutive injections. […] AII injections were then given 1, 5, 10, 20, 30, 45, 60, 75, 90, and 120 minutes after administration of the test compound and the response of arterial pressure monitored. […]
Compounds were tested for absorption from the gastrointestinal tract following intraduodenal administration. […] The response to AII was tested at the same time points following administration of the test compound except that the 1 minute reading was eliminated. […]

[2] = target: angiotensin II receptor (rat uterine membranes); assay: Angiotensin II binding assay (125I-angiotensin II, rat uterine membranes)
Experimental: Other chemicals were obtained from Sigma Chemical Co.
Rat uterine membranes were prepared from fresh tissue. All procedures were carried out at 4° C. Uteri were stripped of fat and homogenized using a Polytron for 25 sec in 20 volumes of ice-cold Dulbecco's phosphate-buffered saline pH 7.5 (Gibso Labs) containing 5 mM EDTA. The homogenate was centrifuged at 1500× g for 20 min., and the supernatant was recentrifuged at 100,000× g for 60 min. The pellet was resuspended in buffer consisting of 2 mM EDTA and 50 mM Tris-HCl, pH 7.5 to a final protein concentration of 4 mg/ml.
The reaction was initiated by the addition of 50 μg of membrane protein and the mixture was incubated at 25° C. for 30 min. The incubation was terminated with ice-cold 50 mM Tris-HCl; pH 7.5 and the mixture was filtered to separate membrane-bound labelled peptide from the free ligand. The incubation tube and filter were washed with ice-cold buffer. Filters were assayed for radioactivity in a Micromedic gamma counter. Nonspecific binding was defined as binding in the presence of 10 μM of unlabelled AII. Specific binding was calculated as total binding minus nonspecific binding. Binding data was analyzed by a nonlinear least-squares curve fitting program.

[3] = target: T1, angiotensin II (AII) contraction of rabbit aortic rings (Oryctolagus cuniculus, UniProt P34976); assay: In vitro myotropic screening assay for AII antagonists in rabbit aortic rings; assay type: cell-based; details: pA2 determined according to Schild
T1 construct: The thoracic aorta was removed, cleaned of adherent fat and connective tissue and then cut into 3-mm ring segments; from tissue; host or cells: rabbit thoracic aorta rings, endothelium removed
T1 sequence (P34976 1-359): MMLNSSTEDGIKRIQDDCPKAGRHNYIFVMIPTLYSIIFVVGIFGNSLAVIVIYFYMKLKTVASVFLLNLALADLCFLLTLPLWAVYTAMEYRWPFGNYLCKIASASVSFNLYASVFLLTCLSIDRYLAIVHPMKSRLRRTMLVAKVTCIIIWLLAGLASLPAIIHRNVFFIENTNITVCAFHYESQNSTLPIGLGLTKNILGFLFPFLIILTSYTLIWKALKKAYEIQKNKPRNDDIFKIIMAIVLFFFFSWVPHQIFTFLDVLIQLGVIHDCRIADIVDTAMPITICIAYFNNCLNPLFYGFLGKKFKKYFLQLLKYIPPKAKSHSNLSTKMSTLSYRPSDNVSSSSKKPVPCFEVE
Experimental: The compounds of the invention were tested for agonist and antagonist activity in rabbit aortic rings. Male New Zealand white rabbits (2-2.5 kg) were sacrificed using an overdose of pentobarbital and exsanguinated via the carotid arteries. The thoracic aorta was removed, cleaned of adherent fat and connective tissue and then cut into 3-mm ring segments. The endothelium was removed from the rings by gently sliding a rolled-up piece of filter paper into the vessel lumen. The rings were then mounted in a water-jacketed tissue bath, maintained at 37° C., between a moveable and a fixed stainless steel wire, with the moveable end attached to an FT03 Grass transducer coupled to a Model 7D Grass Polygraph for recording isometric force responses. […] The preparations were equilibrated for one hour before approximately one gram of passive tension was placed on the rings. For the agonist assay, the rings were exposed to increasing concentrations of the test compound, at 30 minute intervals, during which time the tissue was washed three times with 20 ml of fresh Krebs solution. For the measurement of antagonistic activity, paired rings from the same rabbits were used; one was exposed to increasing concentrations of AII (at 30 minute intervals), and a second ring was exposed to increasing concentrations of AII in the presence of the test compound which was added five minutes prior to the addition of AII. The concentration response curves for AII in the presence of the antagonist were evaluated in terms of the percent of the maximal contraction of the control ring exposed only to AII. pD2 values for AII were calculated from the AII concentration response curves while pA2s were determined according to Schild.

AII pressor response [4] = assay: In vivo pressor screening assay for AII antagonists, intravenous administration; set-up: species or system rat (male Sprague Dawley); details: rat
Experimental: as §1, with “injections. The last two AII injections are averaged and are referred to as the control response to AII.” for “injections.”

angiotensin II receptors = details: background; cited from earlier work
[5] = IC50, 125I-AII, rat uterine membranes, 25° C., 30 min

Row | Molecule | IC50 [2, 5] | IC50 ([2]; meaning not explained) | Kb [3] | other results
1 | CCCCc1nc(Cl)c(CC(=O)O)n1Cc1ccccc1Cl [2-n-butyl-4-chloro-1-(2-chlorobenzyl) imidozole-s-acetic acid] | – | – | – | angiotensin II antagonist activity (angiotensin II): specific competitive angiotensin II antagonist activity
2 | CCCCc1nc2cc(C)c(=O)c(C)cc2n1Cc1ccc(-c2ccccc2C(=O)O)cc1 [Example 1, 4'-[[5,7-dimethyl-2-butyl-6(1H)-cycloheptimidazolon-1-yl]methyl]-[1,1'-biphenyl]-2-carboxylic acid] | 800 nM | 250 nM | 1000 nM | Antagonism of the AII pressor response, maximal inhibition, ID (AII pressor response [1]): 72%; Antagonism of the AII pressor response, maximal inhibition, I.V. (AII pressor response [4]; @ 30 mg): 72%
3 | 4'-[[5(7)-benzyl-7(5)hydrido-2-butyl-6(1H)-cycloheptimidazolon-1-yl]methyl]-[1,1'-biphenyl]-2-carboxylic acid [Example 14] | 2300 nM | 108 nM | – | pA2 [3]: 6.1
4 | angiotensin II: octapeptide, the primary active species of the renin-angiotensin system (DRVYIHPF; Angiotensin-2; UniProt P01019 25-32, looked up) | – | – | – | vasoconstrictor potency (angiotensin II receptors): very potent vasoconstrictor agent
5 | CCCCc1nc2cc(C(=O)O)c(=O)c(C(=O)O)cc2n1Cc1ccc(-c2ccccc2C(=O)O)cc1 [Example 2, 4'-[[5,7-dicarboxy-2-butyl-6(1H)-cycloheptimidazolon-1-yl]methyl]-[1,1'-biphenyl]-2-carboxylic acid] | 500 nM | 140 nM | 251 nM | Antagonism of the AII pressor response, maximal inhibition, I.V. (AII pressor response [4]; @ 10 mg): 100%
6 | CNCC(=O)N[C@@H](CCCN=C(N)N)C(=O)N[C@H](C(=O)N[C@@H](Cc1ccc(O)cc1)C(=O)N[C@H](C(=O)N[C@@H](Cc1cnc[nH]1)C(=O)N1CCC[C@H]1C(=O)N[C@@H](C)C(=O)O)C(C)C)C(C)C [Saralasin] | – | – | – | residual agonist activity (angiotensin II receptors): significant residual agonist activity
7 | CCCCc1nc(Cl)c(CC(=O)O)n1Cc1ccccc1[N+](=O)[O-] [2-butyl-4-chloro-1-(2-nitrobenzyl)imiadzole-5-acetic acid] | – | – | – | angiotensin II antagonist activity (angiotensin II): specific competitive angiotensin II antagonist activity
8 | CCCCc1nc2ccc(=O)ccc2n1Cc1ccc(-c2ccccc2C(=O)O)cc1 [Example 3, 4'-[[2-butyl-6(1H)-cycloheptimidazolon-1-yl]methyl]-[1,1'-biphenyl]-2-carboxylic acid] | 1400 nM | 24 nM | 1260 nM | –
9 | angiotensin III: heptapeptide {[des Asp^1 ]angiotensin II} | – | – | – | vasoconstrictor potency (angiotensin II receptors): less potent as a vasoconstrictor than angiotensin II
10 | CCCc1nc2cc(C(=O)O)c(=O)c(C(=O)O)cc2n1Cc1ccc(-c2ccccc2C(=O)O)cc1 [Example 4, 4'-[[5,7-dicarboxy-2-propyl-6(1H)-cycloheptimidazolon-1-yl]methyl]-[1,1'-biphenyl]-2-carboxylic acid] | 2300 nM | 550 nM | 1000 nM | –

Continued, in another order:

Row | IC50 [2, 5] | IC50 ([2]; meaning not explained) | Kb [3] | Molecule | other results
11 | 1400 nM | 349 nM | 1260 nM | CCCc1nc2ccc(=O)ccc2n1Cc1ccc(-c2ccccc2C(=O)O)cc1 [Example 5, 4'-[[2-propyl-6(1H)-cycloheptimidazolon-1-yl]methyl]-[1,1'-biphenyl]-2-carboxylic acid] | –
12 | 2000 nM | 161 nM | – | CCCCc1nc2cc(C(C)C)c(=O)c(-c3ccccc3)cc2n1Cc1ccc(-c2ccccc2C(=O)O)cc1 [Example 10, 4'-[[5(7)-isopropyl-7(5)phenyl-2-butyl-6(1H)-cycloheptimidazolon-1-yl]methyl]-[1,1'-biphenyl]-2-carboxylic acid] | pA2 [3]: 5.6
13 | 2500 nM | 230 nM | 7940 nM | CCCCCc1nc2cc(C)c(=O)c(C)cc2n1Cc1ccc(-c2ccccc2C(=O)O)cc1 [Example 6, 4'-[[5,7-dimethyl-2-pentyl-6(1H)-cycloheptimidazolon-1-yl]methyl]-[1,1'-biphenyl]-2-carboxylic acid] | –
14 | 800 nM | 117 nM | 316 nM | CCCCc1nc2cc(-c3ccccc3)c(=O)c(-c3ccccc3)cc2n1Cc1ccc(-c2ccccc2C(=O)O)cc1 [Example 7, 4'-[[5,7-diphenyl-2-butyl-6(1H)-cycloheptimidazolon-1-yl]methyl]-[1,1'-biphenyl]-2-carboxylic acid] | –
15 | 4000 nM | 390 nM | – | CCCCc1nc2cc(C(=O)O)c(=O)c(COC)cc2n1Cc1ccc(-c2ccccc2C(=O)O)cc1 [Example 12, 4'-[[5(7)-carboxy-7(5)methoxymethyl-2-butyl-6(1H)-cycloheptimidazolon-1-yl]methyl]-[1,1'-biphenyl]-2-carboxylic acid] | pA2 [3]: 6.8
16 | 1900 nM | 38 nM | – | CCCc1nc2ccc(=O)c(Cc3ccccc3)cc2n1Cc1ccc(-c2ccccc2C(=O)O)cc1 [Example 13, 4'-[[5(7)-hydrido-7(5)benzyl-2-propyl-6(1H)-cycloheptimidazolon-1-yl]methyl]-[1,1'-biphenyl]-2-carboxylic acid] | pA2 [3]: 5.5
17 | 710 nM | 324 nM | – | CCCCCc1nc2cc(C)c(=O)c(C)cc2n1Cc1ccc(-c2ccccc2-c2nn[nH]n2)cc1 [Example 20, 1-{2'-[(tetrazol-5-yl)-biphenyl-4-yl]methyl}-2-pentyl-5,7-dimethyl-cycloheptimidazolone] | –
18 | 7100 nM | – | – | CCCCc1nc2cc(O)c(=O)c(Cl)cc2n1Cc1ccc(-c2ccccc2C(=O)O)cc1 [Example 11, 4'-[[5(7)-hydroxy-7(5)chloro-2-butyl-6(1H)-cycloheptimidazolon-1-yl]methyl]-[1,1'-biphenyl]-2-carboxylic acid] | pA2 [3]: 6.4
